US20230234936A1, “COMPOUND FOR TARGETING AND DEGRADING PROTEIN, AND PREPARATION METHOD THEREFOR AND USE THEREOF” (SHANGHAI LEADINGTAC PHARMACEUTICAL CO., LTD., priority 2020, published 2023)

Tests used:
IRAK4 kinase = target: T1, IRAK4 kinase (Homo sapiens, UniProt Q9NWZ3); assay: IRAK4 kinase activity test (KinEASE-STK S1 HTRF kit); format: biochemical; details: 2.5 nM kinase, 1 μM biotinylated polypeptide substrate, 7 μM ATP, 37° C. 120 min
T1 sequence (Q9NWZ3 1-460): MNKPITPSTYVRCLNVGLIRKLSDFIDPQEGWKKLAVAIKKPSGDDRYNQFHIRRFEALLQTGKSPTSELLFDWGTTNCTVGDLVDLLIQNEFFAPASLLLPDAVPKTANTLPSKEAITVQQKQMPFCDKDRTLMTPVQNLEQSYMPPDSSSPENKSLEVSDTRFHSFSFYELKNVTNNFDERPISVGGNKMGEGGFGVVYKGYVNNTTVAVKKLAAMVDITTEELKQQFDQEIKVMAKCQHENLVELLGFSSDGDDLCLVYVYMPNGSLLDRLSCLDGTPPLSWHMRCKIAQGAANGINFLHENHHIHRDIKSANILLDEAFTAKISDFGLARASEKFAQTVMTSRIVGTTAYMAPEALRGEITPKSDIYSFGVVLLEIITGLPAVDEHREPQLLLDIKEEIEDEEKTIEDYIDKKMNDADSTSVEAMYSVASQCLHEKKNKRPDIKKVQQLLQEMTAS
Method in brief: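 Compound in DMSO, serially diluted to 10000–0.038 nM final, incubated with 2.5 nM kinase, 1 μM biotinylated peptide substrate and 7 μM ATP at 37° C for 120 min. Eu-anti-phospho-Ser/Thr antibody plus streptavidin-XL665 stopped the reaction (1 h RT). HTRF 665/620 nm ratio gave % inhibition versus control; IC50 from nonlinear log-concentration fit.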

[1] = target: T2, IRAK4 protein in THP-1 cells (Homo sapiens, UniProt Q9NWZ3); assay: Degradation of IRAK4 in THP-1 cells (Western blot); format: cell-based; details: 24 hours, compound 1-3000 nM
T2 construct: endogenous in cells; host or cells: THP-1
T2 sequence (Q9NWZ3 1-460): T1 sequence (Q9NWZ3 1-460)
Method in brief: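 THP-1 cells (5×10^5/well) treated 24 h with compound at 1–3000 nM final. IRAK4 in lysates quantified by Western blot, normalized to internal reference and compared with control to give degradation rate; DC50 and Dmax from nonlinear fit of log concentration.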

IKZF1 in L363 cells = target: T3, IKZF1 in L363 cells (Homo sapiens, UniProt Q13422+Q96SW2); assay: Degradation of IKZF1 in L363 cells (Western blot); format: cell-based; details: 1000 nM, 16 hours
T3 construct: endogenous in cells; host or cells: L363
T3 sequence (Q13422 whole entry): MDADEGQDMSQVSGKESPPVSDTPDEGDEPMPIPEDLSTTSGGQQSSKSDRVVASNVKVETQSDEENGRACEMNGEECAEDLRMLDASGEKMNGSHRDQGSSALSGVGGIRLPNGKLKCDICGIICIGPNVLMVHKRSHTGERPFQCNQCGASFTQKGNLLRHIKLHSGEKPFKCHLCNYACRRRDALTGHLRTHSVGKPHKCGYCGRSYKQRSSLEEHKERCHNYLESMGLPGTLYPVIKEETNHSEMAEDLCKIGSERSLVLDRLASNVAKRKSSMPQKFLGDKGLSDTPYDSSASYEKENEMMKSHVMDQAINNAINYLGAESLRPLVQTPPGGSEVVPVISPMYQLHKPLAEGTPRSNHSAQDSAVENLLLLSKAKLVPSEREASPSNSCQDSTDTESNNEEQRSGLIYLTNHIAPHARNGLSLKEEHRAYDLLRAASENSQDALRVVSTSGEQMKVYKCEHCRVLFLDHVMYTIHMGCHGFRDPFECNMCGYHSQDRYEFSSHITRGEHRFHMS
T3 sequence (Q96SW2 whole entry): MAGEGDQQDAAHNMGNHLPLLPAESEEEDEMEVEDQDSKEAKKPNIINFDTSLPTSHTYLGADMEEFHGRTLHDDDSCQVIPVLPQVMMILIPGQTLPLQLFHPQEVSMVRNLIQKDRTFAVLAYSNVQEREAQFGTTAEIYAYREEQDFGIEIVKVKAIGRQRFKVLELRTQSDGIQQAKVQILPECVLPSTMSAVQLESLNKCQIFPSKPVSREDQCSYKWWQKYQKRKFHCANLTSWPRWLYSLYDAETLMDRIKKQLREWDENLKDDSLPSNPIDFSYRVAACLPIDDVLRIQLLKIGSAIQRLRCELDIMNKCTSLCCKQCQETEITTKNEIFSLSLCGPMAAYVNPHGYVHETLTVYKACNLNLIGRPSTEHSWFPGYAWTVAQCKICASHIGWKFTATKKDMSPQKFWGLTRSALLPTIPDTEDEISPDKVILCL
T3 sequence (Q16531 whole entry partner): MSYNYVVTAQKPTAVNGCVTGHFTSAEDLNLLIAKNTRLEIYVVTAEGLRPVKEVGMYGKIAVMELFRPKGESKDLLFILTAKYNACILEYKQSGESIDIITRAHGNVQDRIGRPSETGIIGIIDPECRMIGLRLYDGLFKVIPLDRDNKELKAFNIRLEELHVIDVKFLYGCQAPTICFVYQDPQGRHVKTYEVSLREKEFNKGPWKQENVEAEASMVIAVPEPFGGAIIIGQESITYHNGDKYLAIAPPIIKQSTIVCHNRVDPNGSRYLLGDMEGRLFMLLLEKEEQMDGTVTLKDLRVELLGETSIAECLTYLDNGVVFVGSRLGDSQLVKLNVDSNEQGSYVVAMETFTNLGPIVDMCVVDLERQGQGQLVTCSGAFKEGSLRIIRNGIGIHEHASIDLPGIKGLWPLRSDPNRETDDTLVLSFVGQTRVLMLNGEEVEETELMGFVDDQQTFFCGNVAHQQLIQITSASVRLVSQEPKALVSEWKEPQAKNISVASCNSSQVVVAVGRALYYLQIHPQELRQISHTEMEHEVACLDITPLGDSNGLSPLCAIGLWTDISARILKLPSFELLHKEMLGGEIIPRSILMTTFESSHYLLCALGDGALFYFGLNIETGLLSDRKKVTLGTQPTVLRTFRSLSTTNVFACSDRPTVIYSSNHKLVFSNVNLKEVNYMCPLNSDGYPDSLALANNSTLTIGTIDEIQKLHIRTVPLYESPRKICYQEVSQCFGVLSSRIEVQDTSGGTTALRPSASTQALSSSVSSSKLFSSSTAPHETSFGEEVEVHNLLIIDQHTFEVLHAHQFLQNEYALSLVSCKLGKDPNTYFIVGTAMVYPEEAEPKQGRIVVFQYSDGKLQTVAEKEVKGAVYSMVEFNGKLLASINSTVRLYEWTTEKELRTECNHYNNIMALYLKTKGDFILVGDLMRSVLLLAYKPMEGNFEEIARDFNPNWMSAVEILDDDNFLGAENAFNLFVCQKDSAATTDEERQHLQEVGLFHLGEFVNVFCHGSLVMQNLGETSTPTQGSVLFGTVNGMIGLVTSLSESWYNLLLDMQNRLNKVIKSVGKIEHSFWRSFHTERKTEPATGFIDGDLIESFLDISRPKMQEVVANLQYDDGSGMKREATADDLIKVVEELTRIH
Experimental: (§1) The 24-well cell culture plate was inoculated with 0.95 mL L363 cells (Nanjing Co-bioer) per well with a cell density of 6×10^5 cells/well. The cell plate was placed in a 5% carbon dioxide incubator and cultured at 37° C. for 8 hours, then 50 μL of compound solution was added. The final concentration of the compound was 1000 nM. After continuing to culture for 16 hours, the cells were collected into a 1.5 mL centrifuge tube and centrifuged at 3000 rpm and 4° C. for 5 minutes. Cell precipitation was cleaned twice with 1×DPBS, resuspended cells were lysed with 100 μL lysate (cell lysate was Western and IP cell lysate (Beyotime), supplemented with 1 mM mixture of phenylmethylsulfonyl fluoride and protease inhibitor (Beyotime)), left on ice for 30 minutes, then centrifuged at 14000 g at 4° C. for 10 minutes, and the supernatant was taken to detect IKZF1 and IKZF3 protein level by Western blot.
(§2) The total protein concentration in the supernatant of cell lysis was determined by BCA protein quantitative kit (Tiangen). According to the concentration of total protein detected by BCA, the supernatant was adjusted to 0.2 μg/μL with PBS and 5× SDS-PAGE protein loading buffer (Beyotime), bathed in water at 100° C. for 10 minutes, then placed in ice bath for 5 minutes, centrifuged at 14000 g and 4° C. for 5 minutes, and then collected as WB loading sample. Prefabricated glue (KeyGEN) was used for protein electrophoresis with a loading amount of 10 μL (total protein 2 μg). After Tris-MOPS-SDS electrophoresis solution (Adamas), 120V constant pressure electrophoresis was performed. After electrophoresis, the protein on the adhesive strip was transferred to PVDF membrane with a constant current of […] for 50 minutes. After the membrane was transferred, the membrane was incubated in 5% bovine serum albumin solution for 2 hours at room temperature. After blocking, PVDF membranes were incubated with IKZF1 primary antibody (CST) and IKZF3 primary antibody (Abcam) overnight at 4°, the membranes were washed with TBST buffer (2.4 g Tris, 8.8 g NaCl, 1.5 mL Tween 20, pH adjusted to 7.4, constant volume to IL) for 30 minutes, incubated with secondary antibody (Abcam) for 2 hours at room temperature, finally incubated with Clarity Western ECL Substrate(BIO-RAD) for 5 minutes for luminescence development, chemiluminescence imaging system (Clinx, chemiScope 6200 Touch) for development and protein mapping photography. The protein map was analyzed by Clinx chemiluminescence analysis software for grayscale values. Using the formula: grayscale correction value=(target protein grayscale value/corresponding internal reference grayscale value)×10^3, the grayscale correction value of each sample was calculated. The degradation rate was calculated by comparing with the grayscale correction value of the control group.

IKZF3 in L363 cells = target: T4, IKZF3 in L363 cells (Homo sapiens, UniProt Q96SW2+Q9UKT9); assay: Degradation of IKZF3 in L363 cells (Western blot); format: cell-based; details: 1000 nM, 16 hours
T4 construct: endogenous in cells; host or cells: L363
T4 sequence (Q9UKT9 whole entry): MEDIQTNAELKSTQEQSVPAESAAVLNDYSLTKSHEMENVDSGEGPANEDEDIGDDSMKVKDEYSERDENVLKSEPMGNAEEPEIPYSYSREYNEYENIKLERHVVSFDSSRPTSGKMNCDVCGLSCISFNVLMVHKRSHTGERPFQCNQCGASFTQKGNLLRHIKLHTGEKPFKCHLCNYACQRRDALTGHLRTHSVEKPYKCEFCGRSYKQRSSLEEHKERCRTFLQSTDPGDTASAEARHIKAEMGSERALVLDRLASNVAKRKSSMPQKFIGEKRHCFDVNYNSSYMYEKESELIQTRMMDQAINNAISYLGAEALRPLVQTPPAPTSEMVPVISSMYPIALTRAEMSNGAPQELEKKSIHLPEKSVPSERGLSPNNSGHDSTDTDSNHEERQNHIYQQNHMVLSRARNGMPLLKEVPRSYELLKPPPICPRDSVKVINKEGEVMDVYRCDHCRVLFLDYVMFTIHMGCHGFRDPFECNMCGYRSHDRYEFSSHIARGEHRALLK
T4 sequence (Q96SW2 whole entry): as the sequence (Q96SW2 whole entry) above
T4 sequence (Q16531 whole entry partner): as the sequence (Q16531 whole entry partner) above
Experimental: as §1, §2

IC50 (IRAK4 kinase) [µM]	DC50 [1] [µM]	Dmax [1] [%]	IKZF1 degradation rate (IKZF1 in L363 cells) [%]	IKZF3 degradation rate (IKZF3 in L363 cells) [%]	SMILES
0.0165	0.0025	98.1	10.2 ± 1.8	−2.2 ± 2.8	CC(C)(O)c1cc2nn(C3CCN(CCC4CCC5(CC4)CCN(C(=O)c4ccc(F)c(N6CCC(=O)NC6=O)c4)CC5)CC3)cc2cc1NC(=O)c1cccc(C(F)(F)F)n1 [Example 34, N-(2-(1-(2-(3-(3-(2,4-dioxotetrahydro-pyrimidin-1 (2H)-yl)-4-fluoro-benzoyl)-3-azaspiro[5.5]undec-9-yl)ethyl)piperidin-4-yl)-6-(2-hydroxyprop-2-yl)-2H-indazol-5-yl)-6-(trifluoro-methyl) pyridinecarbox-amide]
0.0351	0.0048	98	53.8 ± 2.0	9.8 ± 2.0	CC(C)(O)c1cc2nn(C3CCN(CCC4CCC5(CC4)CCN(C(=O)c4ccc(F)c(C6CCC(=O)NC6=O)c4)CC5)CC3)cc2cc1NC(=O)c1cccc(C(F)(F)F)n1 (stereo not drawn) [Example 40, N-(2-(1-(2-(3-(3-(2,6-dioxopiperidin-3-yl)-4-fluoro-benzoyl)-3-azaspiro [5.5]undec-9-yl)ethyl)piperidin-4-yl)-6-(2-hydroxyprop-2-yl)-2H-indazol-5-yl)-6-(trifluoro-methyl) pyridinecarbox-amide]
–	–	–	99.7 ± 0.2	98.6 ± 0.6	Nc1cccc2c1C(=O)N(C1CCC(=O)NC1=O)C2=O (stereo not drawn) [Pomalidomide]
